Assay results as given in US20230265116A1, “DEGRADATION OF (EGFR) BY CONJUGATION OF EGFR INHIBITORS WITH E3 LIGASE LIGAND AND METHODS OF USE” (BEIGENE, LTD., priority 2020, published 2023).
Where two headings read alike, the source gives them in different places. Values belong to the compound of their own block, whether it stands above or below them.

Legend:
[1] = biological target: T1, EGFR L858R/T790M/C797S (BaF3-LTC cells) (Homo sapiens, UniProt P00533, C797S/L858R/T790M); experiment: EGFR degradation HTRF assay, BaF3-LTC cells; type: cell-based
T1 construct: expressed in transfected cells; host or cells: BaF3
T1 sequence (P00533 25-1210 T790M/C797S/L858R): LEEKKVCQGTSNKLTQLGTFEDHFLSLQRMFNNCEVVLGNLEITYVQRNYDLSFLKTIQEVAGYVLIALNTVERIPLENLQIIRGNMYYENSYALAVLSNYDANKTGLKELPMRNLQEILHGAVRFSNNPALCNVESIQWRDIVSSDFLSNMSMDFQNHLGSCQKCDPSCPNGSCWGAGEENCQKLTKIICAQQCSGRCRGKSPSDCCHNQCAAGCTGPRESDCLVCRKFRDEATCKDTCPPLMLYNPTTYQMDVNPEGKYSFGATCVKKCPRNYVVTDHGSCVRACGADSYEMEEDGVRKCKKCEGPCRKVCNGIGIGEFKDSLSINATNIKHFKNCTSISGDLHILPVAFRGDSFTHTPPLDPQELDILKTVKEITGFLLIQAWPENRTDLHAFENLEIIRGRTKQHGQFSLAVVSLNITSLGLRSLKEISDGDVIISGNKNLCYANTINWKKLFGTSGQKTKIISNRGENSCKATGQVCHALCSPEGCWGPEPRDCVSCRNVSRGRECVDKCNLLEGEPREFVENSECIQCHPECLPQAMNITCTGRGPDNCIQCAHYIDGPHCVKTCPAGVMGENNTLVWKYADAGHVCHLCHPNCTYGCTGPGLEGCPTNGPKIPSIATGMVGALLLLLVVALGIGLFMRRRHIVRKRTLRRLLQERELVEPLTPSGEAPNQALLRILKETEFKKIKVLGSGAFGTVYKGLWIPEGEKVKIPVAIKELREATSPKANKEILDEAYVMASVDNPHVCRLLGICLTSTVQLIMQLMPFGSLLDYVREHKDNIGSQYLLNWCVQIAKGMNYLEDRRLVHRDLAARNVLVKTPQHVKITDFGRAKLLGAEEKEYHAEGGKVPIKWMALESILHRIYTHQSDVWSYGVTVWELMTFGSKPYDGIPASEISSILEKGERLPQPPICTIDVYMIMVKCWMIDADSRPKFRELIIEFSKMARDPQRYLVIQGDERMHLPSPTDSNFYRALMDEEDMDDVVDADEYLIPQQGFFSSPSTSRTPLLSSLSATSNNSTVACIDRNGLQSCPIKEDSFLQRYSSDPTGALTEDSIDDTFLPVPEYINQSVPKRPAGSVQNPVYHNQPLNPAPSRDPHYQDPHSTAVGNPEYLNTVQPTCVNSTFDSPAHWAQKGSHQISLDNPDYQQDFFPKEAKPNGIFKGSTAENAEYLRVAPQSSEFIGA
Procedure, shortened: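 EGFR remaining after a 16 h, 37 °C exposure (8 doses, 5-fold steps from 10 uM final, 0.2% DMSO) was quantified by HTRF antibodies in cell lysate. Percent inhibition relative to DMSO control was fitted by four-parameter logistic to give DC50; Dmax denotes maximal degradation.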

[2] = test system: EGFR Del19/T790M/C797S (H1975-clone #28); experiment: EGFR degradation HTRF assay, H1975-clone #28 DTC cells; type: cell-based
Procedure, shortened: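 Lentiviral Del19/T790M/C797S (clone #28) or Del19/C797S (clone #23) EGFR expressed in H1975 with endogenous EGFR knocked out. Cells treated 16 h, 37 °C, 8 doses, 5-fold from 10 uM top, 0.2% DMSO; EGFR read by HTRF after lysis. Degradation % vs DMSO control; DC50, Dmax from four-parameter fit.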

[3] = BaF3-LTC cells; EGFR degradation, IC50 (DC50) from curve fit; read-out: DC50(nM) BaF3-LTC
[4] = BaF3-LTC cells; maximum percentage of inhibition (degradation); read-out: Dmax (%) BaF3-LTC
[5] = H1975 # 28 DTC cells; EGFR degradation, IC50 (DC50) from curve fit; read-out: DC50(nM) H1975 # 28 DTC
[6] = H1975 # 28 DTC cells; maximum percentage of inhibition (degradation)
[7] = read-out: DC50(nM) BaF3-LTC; BaF3-LTC cells; EGFR degradation, IC50 (DC50) from curve fit
[8] = read-out: DC50(nM) H1975 # 28 DTC; H1975 # 28 DTC cells; EGFR degradation, IC50 (DC50) from curve fit

Structure (SMILES): CCc1cc(Nc2ncc(Br)c(Nc3ccc4c(C)nccc4c3P(C)(C)=O)n2)c(OC)cc1N1CCC(N2CCN(CCc3cc(F)c([C@H]4CCC(=O)NC4=O)c(F)c3)CC2)CC1 [Example 684, (R)-3-(4-(2-(4-(1-(4-((5-bromo-4-((5-(dimethylphosphoryl)-1-methylisoquinolin-6-yl)amino)pyrimidin-2-yl)amino)-2-ethyl-5-methoxyphenyl)piperidin-4-yl)piperazin-1-yl)ethyl)-2,6-difluorophenyl)piperidine-2,6-dione]
DC50 [1, 3]: 12.4 nM
Dmax [1, 4]: 91.4%
DC50 [2, 5]: 1.06 nM
Dmax (%) H1975 # 28 DTC [2, 6]: 88.35%

Structure (SMILES): CCOc1cc(N2CCC(N3CCN(CC4CN(c5cccc6c5oc(=O)n6C5CCC(=O)NC5=O)C4)CC3)CC2)c(CC)cc1Nc1ncc(Br)c(Nc2cc(F)c3nc(CC)ccc3c2P(C)(C)=O)n1 (stereo not shown) [Example 562, 3-(7-(3-((4-(1-(4-((5-bromo-4-((5-(dimethylphosphoryl)-2-ethyl-8-fluoroquinolin-6-yl)amino)pyrimidin-2-yl)amino)-5-ethoxy-2-ethylphenyl)piperidin-4-yl)piperazin-1-yl)methyl)azetidin-1-yl)-2-oxobenzo[d]oxazol-3(2H)-yl)piperidine-2,6-dione]
DC50 [1, 3]: 7.47 nM
Dmax [1, 4]: 90.2%
DC50 [2, 5]: 1.54 nM
Dmax (%) H1975 # 28 DTC [2, 6]: 77.73%

Structure (SMILES): CCOc1cc(N2CCC(N3CCN(C(=O)[C@@H]4CCN(c5cc(F)c([C@H]6CCC(=O)NC6=O)c(F)c5)C4)CC3)CC2)c(CC)cc1Nc1ncc(Br)c(Nc2ccc3c(=O)n(C)ncc3c2P(C)(C)=O)n1 [Example 530, (R)-3-(4-((R)-3-(4-(1-(4-((5-bromo-4-((5-(dimethylphosphoryl)-2-methyl-1-oxo-1,2-dihydrophthalazin-6-yl)amino)pyrimidin-2-yl)amino)-5-ethoxy-2-ethylphenyl)piperidin-4-yl)piperazine-1-carbonyl)pyrrolidin-1-yl)-2,6-difluorophenyl)piperidine-2,6-dione]
DC50 [1, 3]: 5.05 nM
Dmax [1, 4]: 94.6%
DC50 [2, 5]: 1.87 nM
Dmax (%) H1975 # 28 DTC [2, 6]: 82.54%

Structure (SMILES): CCOc1cc(N2CCC(N3CCN(C(=O)[C@@H]4CCN(c5cc(F)cc6c5oc(=O)n6C5CCC(=O)NC5=O)C4)CC3)CC2)c(CC)cc1Nc1ncc(Br)c(Nc2ccc3nc(CC)ccc3c2P(C)(C)=O)n1 (stereo partly drawn) [Example 477, 3-(7-((R)-3-(4-(1-(4-((5-bromo-4-((5-(dimethylphosphoryl)-2-ethylquinolin-6-yl)amino)pyrimidin-2-yl)amino)-5-ethoxy-2-ethylphenyl)piperidin-4-yl)piperazine-1-carbonyl)pyrrolidin-1-yl)-5-fluoro-2-oxobenzo[d]oxazol-3(2H)-yl)piperidine-2,6-dione]
DC50 [1, 7]: 7.16 nM
Dmax ([1]; read-out: Dmax (%) BaF3-LTC, BaF3-LTC cells; maximum percentage of inhibition (degradation)): 82.7%
Dmax (%) H1975 # 28 DTC [2, 6]: 73.35%
DC50 [2, 8]: 4.24 nM

Structure (SMILES): CCc1ccc2c(P(C)(C)=O)c(Nc3nc(Nc4cc(CC)c(N5CCC(N6CCN(CCc7cc(F)c([C@H]8CCC(=O)NC8=O)c(F)c7)CC6)CC5)cc4OC)ncc3Cl)ccc2n1 [Example 744, (R)-3-(4-(2-(4-(1-(4-((5-chloro-4-((5-(dimethylphosphoryl)-2-ethylquinolin-6-yl)amino)pyrimidin-2-yl)amino)-2-ethyl-5-methoxyphenyl)piperidin-4-yl)piperazin-1-yl)ethyl)-2,6-difluorophenyl)piperidine-2,6-dione]
DC50 [1, 3]: 5.87 nM
DC50 [2, 5]: 0.653 nM
Dmax (%) H1975 # 28 DTC [2, 6]: 84.24%

Structure (SMILES): CCOc1cc(N2CCC(N3CCN(CCCc4cc(F)cc5c4oc(=O)n5C4CCC(=O)NC4=O)CC3)CC2)c(CC)cc1Nc1ncc(Br)c(Nc2ccc3nc(CC)ncc3c2P(C)(C)=O)n1 (stereo not shown) [Example 617, 3-(7-(3-(4-(1-(4-((5-bromo-4-((5-(dimethylphosphoryl)-2-ethylquinazolin-6-yl)amino)pyrimidin-2-yl)amino)-5-ethoxy-2-ethylphenyl)piperidin-4-yl)piperazin-1-yl)propyl)-5-fluoro-2-oxobenzo[d]oxazol-3(2H)-yl)piperidine-2,6-dione]
Dmax (%) BaF3-LTC ([1]; BaF3-LTC cells; maximum percentage of inhibition (degradation)): 91.31%
DC50 [1, 7]: 5.77 nM
Dmax (%) H1975 # 28 DTC [2, 6]: 74.31%
DC50 [2, 8]: 1.15 nM

Structure (SMILES): CCOc1cc(N2CCC(N3CCN(CCc4cc(F)c([C@H]5CCC(=O)NC5=O)c(F)c4)CC3)CC2)c(CC)cc1Nc1nccc(Nc2cc(F)c3nc(CC)ccc3c2P(C)(C)=O)n1 [Example 591, (R)-3-(4-(2-(4-(1-(4-((4-((5-(dimethylphosphoryl)-2-ethyl-8-fluoroquinolin-6-yl)amino)pyrimidin-2-yl)amino)-5-ethoxy-2-ethylphenyl)piperidin-4-yl)piperazin-1-yl)ethyl)-2,6-difluorophenyl)piperidine-2,6-dione]
DC50 [1, 3]: 72.7 nM
Dmax [1, 4]: 75%
DC50 [2, 5]: 1.57 nM
Dmax (%) H1975 # 28 DTC [2, 6]: 75.79%

Structure (SMILES): CCc1cc(Nc2ncc(Br)c(Nc3ccc4nc(NC5CC5)ccc4c3P(C)(C)=O)n2)c(OC)cc1N1CCC(N2CCN(CCc3cc(F)c([C@H]4CCC(=O)NC4=O)c(F)c3)CC2)CC1 [Example 653, (R)-3-(4-(2-(4-(1-(4-((5-bromo-4-((2-(cyclopropylamino)-5-(dimethylphosphoryl)quinolin-6-yl)amino)pyrimidin-2-yl)amino)-2-ethyl-5-methoxyphenyl)piperidin-4-yl)piperazin-1-yl)ethyl)-2,6-difluorophenyl)piperidine-2,6-dione]
DC50 [1, 3]: 7.19 nM
Dmax [1, 4]: 87.7%
DC50 [2, 5]: 0.7 nM
Dmax (%) H1975 # 28 DTC [2, 6]: 87.89%

Now from value to compound, other results behind:

DC50 [1, 3]: 3.25 nM
Dmax [1, 4]: 92.5%
DC50 [2, 5]: 0.655 nM
Structure (SMILES): CCc1ccc2c(P(C)(C)=O)c(Nc3nc(Nc4cc(CC)c(N5CCC(N6CCN(CCc7cc8oc(=O)n(C9CCC(=O)NC9=O)c8cc7F)CC6)CC5)cc4OC)ncc3Br)ccc2n1 (stereo not shown) [Example 457, 3-(6-(2-(4-(1-(4-((5-bromo-4-((5-(dimethylphosphoryl)-2-ethylquinolin-6-yl)amino)pyrimidin-2-yl)amino)-2-ethyl-5-methoxyphenyl)piperidin-4-yl)piperazin-1-yl)ethyl)-5-fluoro-2-oxobenzo[d]oxazol-3(2H)-yl)piperidine-2,6-dione]
Dmax (%) H1975 # 28 DTC [2, 6]: 74.18%

DC50 [1, 3]: 5.43 nM
Dmax [1, 4]: 91%
DC50 [2, 5]: 0.711 nM
Structure (SMILES): CCOc1cc(N2CCC(N3CCN(CCc4cc5oc(=O)n(C6CCC(=O)NC6=O)c5cc4Cl)CC3)CC2)c(CC)cc1Nc1ncc(Br)c(Nc2ccc3c(=O)n(CC)ncc3c2P(C)(C)=O)n1 (stereo not shown) [Example 626, 3-(6-(2-(4-(1-(4-((5-bromo-4-((5-(dimethylphosphoryl)-2-ethyl-1-oxo-1,2-dihydrophthalazin-6-yl)amino)pyrimidin-2-yl)amino)-5-ethoxy-2-ethylphenyl)piperidin-4-yl)piperazin-1-yl)ethyl)-5-chloro-2-oxobenzo[d]oxazol-3(2H)-yl)piperidine-2,6-dione]
Dmax (%) H1975 # 28 DTC [2, 6]: 76.73%

DC50 [1, 3]: 132 nM
Dmax [1, 4]: 90%
DC50 [2, 5]: 38.8 nM
Structure (SMILES): CCOc1cc(N2CCC(N3CCN(CCc4c(C)ccc5c4n(C)c(=O)n5C4CCC(=O)NC4=O)CC3)CC2)c(CC)cc1Nc1ncc(Br)c(Nc2ccc3nc(CC)ccc3c2P(C)(C)=O)n1 (stereo not shown) [Example 461, 3-(4-(2-(4-(1-(4-((5-bromo-4-((5-(dimethylphosphoryl)-2-ethylquinolin-6-yl)amino)pyrimidin-2-yl)amino)-5-ethoxy-2-ethylphenyl)piperidin-4-yl)piperazin-1-yl)ethyl)-3,5-dimethyl-2-oxo-2,3-dihydro-1H-benzo[d]imidazol-1-yl)piperidine-2,6-dione]
Dmax (%) H1975 # 28 DTC [2, 6]: 75.83%
